Laboratory results reported in DBAASP.
Values after ≈ are worked out from the molar mass of the structure shown.

Assays:
Assay in all cases: ≥ marks a high value that may be exact or a test limit, other limits are often not marked, values filed in µg/mL are converted to µM
Bacillus cereus = system: Bacillus cereus
Staphylococcus aureus = system: Staphylococcus aureus
Escherichia coli = system: Escherichia coli
Candida albicans = system: Candida albicans
[1] = system: Escherichia coli ATCC 25922
[2] = system: Candida albicans ATCC 90028
[3] = system: Staphylococcus aureus ATCC 25923
[4] = system: Staphylococcus aureus ATCC 29213
[5] = system: Pseudomonas aeruginosa ATCC 27853

SMILES	MIC (Bacillus cereus) [µM]	MIC (Staphylococcus aureus) [µM]	MIC (Escherichia coli) [µM]	MIC (Candida albicans) [µM]	other results
CC(C)C[C@H](NC(=O)[C@H](CCCCN)NC(=O)[C@H](Cc1ccccc1)NC(=O)[C@@H](NC(=O)[C@H](CCCCN)NC(=O)CNC(=O)[C@H](CC(C)C)NC(=O)[C@@H](N)Cc1ccccc1)C(C)C)C(=O)N[C@@H](C)C(=O)N[C@@H](CO)C(=O)N[C@@H](CCCCN)C(=O)N[C@H](C(=O)N[C@@H](Cc1ccccc1)C(=O)NCC(=O)N[C@@H](C)C(=O)N[C@H](C(=O)N[C@@H](Cc1ccccc1)C(=O)NCC(=O)N[C@@H](CCCCN)C(=O)N[C@H](C(=O)O)C(C)C)C(C)C)C(C)C [FLGKVFKLASKVFGAVFGKV]	3.73 (≈ 8 µg/mL)	3.73 (≈ 8 µg/mL)	7.47 (≈ 16 µg/mL)	–	–
CC[C@H](C)[C@H](NC(=O)[C@H](CC(C)C)NC(=O)[C@H](CCCCN)NC(=O)CNC(=O)[C@@H](NC(=O)[C@@H](N)Cc1ccccc1)[C@@H](C)CC)C(=O)N[C@@H](CO)C(=O)N[C@@H](C)C(=O)N[C@@H](C)C(=O)N[C@@H](CO)C(=O)NCC(=O)N[C@@H](CC(C)C)C(=O)N[C@@H](CC(C)C)C(=O)N[C@@H](CO)C(=O)N[C@@H](Cc1cnc[nH]1)C(=O)N[C@@H](CC(C)C)C(N)=O [FIGKLISAASGLLSHL]	–	9.5 (≈ 15.4 µg/mL)	38.4 (≈ 62.4 µg/mL)	150 (≈ 244 µg/mL)	–
CC[C@H](C)[C@H](NC(=O)[C@H](CCCCN)NC(=O)[C@H](CS)NC(=O)[C@H](C)NC(=O)[C@@H](NC(=O)[C@H](Cc1ccccc1)NC(=O)CNC(=O)[C@H](CC(C)C)NC(=O)CNC(=O)[C@@H](NC(=O)[C@H](CCCCN)NC(=O)CNC(=O)[C@H](CC(C)C)NC(=O)[C@H](CC(N)=O)NC(=O)[C@H](CCCCN)NC(=O)[C@H](CC(C)C)NC(=O)[C@@H](NC(=O)[C@H](C)NC(=O)[C@H](CC(C)C)NC(=O)[C@H](CCSC)NC(=O)[C@@H](N)CO)C(C)C)C(C)C)C(C)C)C(=O)N[C@@H](CC(N)=O)C(=O)N[C@@H](CCCCN)C(=O)N[C@@H](CCC(N)=O)C(=O)N[C@@H](CS)C(=O)O [SMLAVLKNLGKVGLGFVACKINKQC]	–	100 (≈ 264 µg/mL)	10 (≈ 26.4 µg/mL)	100 (≈ 264 µg/mL)	–
CC(C)C[C@H](NC(=O)CNC(=O)[C@H](C)NC(=O)[C@@H](N)CCCCN)C(=O)N[C@@H](C)C(=O)N[C@@H](Cc1ccccc1)C(=O)N1CCC[C@H]1C(=O)N[C@H](C(=O)NCC(=O)N[C@@H](CCCN=C(N)N)C(=O)N[C@H](C(=O)N[C@@H](Cc1cnc[nH]1)C(=O)N[C@@H](CCCN=C(N)N)C(=O)N[C@@H](CC(C)C)C(=O)N[C@@H](CC(C)C)C(=O)N[C@@H](CCCN=C(N)N)C(=O)N[C@@H](CCCCN)C(=O)O)C(C)C)C(C)C [KAGLAFPVGRVHRLLRK]	–	–	–	133 (≈ 255 µg/mL)	–
CC(=O)N[C@@H](CCCCN)C(=O)N[C@@H](Cc1ccc(O)cc1)C(=O)N[C@H](C(=O)NCC(=O)N[C@@H](CCCCN)C(=O)N[C@@H](CS)C(=O)N[C@@H](Cc1ccc(O)cc1)C(=O)N[C@@H](CCCCN)C(=O)N[C@@H](CCCCN)C(=O)N[C@@H](CCCCN)C(=O)N[C@@H](CC(N)=O)C(=O)N[C@@H](CCC(=O)O)C(=O)N[C@@H](CS)C(=O)N[C@@H](CCCCN)C(N)=O)[C@@H](C)O [KYTGKCYKKKNECK]	–	–	–	2.5 (≈ 4.41 µg/mL)	–
NCCCC[C@H](NC(=O)[C@H](CCC(=O)O)NC(=O)[C@@H](N)CC(=O)O)C(=O)NCC(=O)N1CCC[C@H]1C(=O)N[C@@H](CCCCN)C(=O)N[C@@H](Cc1c[nH]c2ccccc12)C(=O)N[C@@H](CCCCN)C(=O)N[C@@H](CCCN=C(N)N)C(=O)O [DEKGPKWKR]	–	–	–	30.8 (≈ 35.2 µg/mL)	–
CSCC[C@H](N)C(=O)N[C@H](C(=O)N[C@H](C(=O)N[C@@H](Cc1ccccc1)C(=O)N[C@@H](CO)C(=O)N[C@H](C(=O)N1CCC[C@H]1C(=O)N[C@@H](CCCCN)C(=O)N[C@@H](Cc1ccccc1)C(=O)N[C@@H](CCCCN)C(=O)N[C@@H](CO)C(=O)N[C@H](C(=O)N[C@H](C(=O)N[C@@H](C)C(=O)N[C@@H](CCCCN)C(=O)N[C@@H](CC(C)C)C(=O)N[C@@H](CC(C)C)C(=O)N[C@@H](CO)C(=O)N[C@@H](CO)C(=O)N[C@@H](C)C(=O)O)C(C)C)[C@@H](C)O)C(C)C)C(C)C)C(C)C [MVVFSVPKFKSTVAKLLSSA]	≥ 120	–	> 120	–	–
CC(C)[C@H](NC(=O)CNC(=O)CNC(=O)[C@@H](NC(=O)[C@@H](N)Cc1ccccc1)C(C)C)C(=O)N[C@@H](C)C(=O)N[C@@H](CO)C(=O)N[C@@H](CCCCN)C(=O)N[C@H](C(=O)N[C@H](C(=O)N1CCC[C@H]1C(=O)N[C@@H](CO)C(=O)N[C@H](C(=O)N[C@@H](Cc1ccc(O)cc1)C(=O)N[C@@H](CS)C(=O)N[C@@H](CCCCN)C(=O)N[C@H](C(=O)N[C@@H](CO)C(=O)N[C@@H](CCCCN)C(=O)N[C@@H](CCCCN)C(=O)O)C(C)C)C(C)C)C(C)C)C(C)C [FVGGVASKVVPSVYCKVSKK]	≥ 123	–	> 123	–	–
CC[C@H](C)[C@H](NC(=O)[C@H](CCCCN)NC(=O)[C@H](CO)NC(=O)[C@H](C)NC(=O)[C@@H](NC(=O)[C@H](Cc1ccccc1)NC(=O)CNC(=O)[C@H](CC(C)C)NC(=O)CNC(=O)[C@@H](NC(=O)[C@H](CCCCN)NC(=O)CNC(=O)[C@H](CC(C)C)NC(=O)[C@H](CC(N)=O)NC(=O)[C@H](CCCCN)NC(=O)[C@H](CC(C)C)NC(=O)[C@@H](NC(=O)[C@H](CO)NC(=O)[C@H](CC(C)C)NC(=O)[C@H](CCSC)NC(=O)[C@@H](N)CO)C(C)C)C(C)C)C(C)C)C(=O)N[C@@H](CC(N)=O)C(=O)N[C@@H](CCCCN)C(=O)N[C@@H](CCC(N)=O)C(=O)N[C@@H](CO)C(=O)O [SMLSVLKNLGKVGLGFVASKINKQS]	–	100 (≈ 262 µg/mL)	20 (≈ 52.4 µg/mL)	100 (≈ 262 µg/mL)	–
CC(C)C[C@H](NC(=O)[C@@H](N)Cc1ccccc1)C(=O)NCC(=O)N[C@H](C(=O)N[C@H](C(=O)N[C@@H](Cc1ccccc1)C(=O)N[C@@H](CCCCN)C(=O)NCC(=O)N[C@@H](C)C(=O)N[C@@H](CO)C(=O)N[C@@H](CCCCN)C(=O)N[C@H](C(=O)N[C@@H](Cc1ccccc1)C(=O)N1CCC[C@H]1C(=O)N[C@@H](C)C(=O)N[C@H](C(=O)N[C@@H](Cc1ccccc1)C(=O)NCC(=O)N[C@@H](CCCCN)C(=O)N[C@H](C(=O)O)C(C)C)C(C)C)C(C)C)C(C)C)C(C)C [FLGVVFKGASKVFPAVFGKV]	≥ 122	> 122	> 122	–	–
CC[C@H](C)[C@@H]1NC(=O)[C@H](CCCCN)NC(=O)[C@@H](NC(=O)[C@H](CCCCN)NC(=O)[C@H](CC(C)C)NC(=O)[C@H](CCCCN)NC(=O)[C@H](CC(=O)O)NC(=O)[C@H](CC(C)C)NC(=O)[C@H](CCSC)NC(=O)[C@H](CCC(N)=O)NC(=O)CNC(=O)[C@H](C)NC(=O)[C@H](CC(C)C)NC(=O)[C@H](CC(N)=O)NC(=O)[C@H](CCCCN)NC(=O)[C@H](C)NC(=O)[C@H](C)NC(=O)[C@H](CC(N)=O)NC(=O)[C@H](CCCCN)NC(=O)[C@@H](NC(=O)[C@@H](NC(=O)[C@H](CC(=O)O)NC(=O)[C@H](CCSC)NC(=O)[C@H](CC(C)C)NC(=O)CN)[C@@H](C)O)C(C)C)CSSC[C@@H](C(=O)O)NC(=O)[C@H](CO)NC(=O)CNC(=O)[C@H]([C@@H](C)O)NC1=O [GLMDTVKNAAKNLAGQMLDKLKCKITGSC]	–	–	–	–	MIC [1]: 50 µM (≈ 153 µg/mL); MIC [2]: ≥ 100 µM; MIC [3]: > 200 µM
CC[C@H](C)[C@H](NC(=O)[C@H](CCCN=C(N)N)NC(=O)[C@H](CCCCN)NC(=O)[C@@H](NC(=O)[C@H](CCCCN)NC(=O)[C@H](CCCN=C(N)N)NC(=O)[C@@H](N)CCCCN)C(C)C)C(=O)N[C@@H](CCCCN)C(=O)N[C@@H](CCCCN)C(=O)N[C@@H](Cc1ccccc1)C(=O)N[C@@H](CC(C)C)C(=O)N[C@@H](CCCN=C(N)N)C(=O)O [KRKVKRIKKFLR]	–	–	–	–	MIC [4]: 20 µM (≈ 32 µg/mL); MIC [5]: 2.5 µM (≈ 4 µg/mL); MIC [1]: 0.625 µM (≈ 1 µg/mL); MIC [2]: 1.25 µM (≈ 2 µg/mL)
CC(C)C[C@H](NC(=O)[C@H](CCCCN)NC(=O)[C@H](Cc1ccccc1)NC(=O)[C@@H](NC(=O)[C@@H](NC(=O)CNC(=O)[C@H](CC(C)C)NC(=O)[C@@H](N)Cc1ccccc1)C(C)C)C(C)C)C(=O)N[C@@H](C)C(=O)N[C@@H](CO)C(=O)N[C@@H](CCCCN)C(=O)N[C@H](C(=O)N[C@@H](Cc1ccccc1)C(=O)N[C@@H](CCCCN)C(=O)N[C@@H](C)C(=O)N[C@H](C(=O)N[C@@H](Cc1ccccc1)C(=O)NCC(=O)N[C@@H](CCCCN)C(=O)N[C@H](C(=O)O)C(C)C)C(C)C)C(C)C [FLGVVFKLASKVFKAVFGKV]	3.66 (≈ 8 µg/mL)	3.66 (≈ 8 µg/mL)	58.6 (≈ 128 µg/mL)	–	–
CC(C)C[C@H](NC(=O)[C@@H](N)Cc1ccccc1)C(=O)NCC(=O)N[C@@H](CCCCN)C(=O)N[C@H](C(=O)N[C@@H](Cc1ccccc1)C(=O)N[C@@H](CCCCN)C(=O)NCC(=O)N[C@@H](C)C(=O)N[C@@H](CO)C(=O)N[C@@H](CCCCN)C(=O)N[C@H](C(=O)N[C@@H](Cc1ccccc1)C(=O)NCC(=O)N[C@@H](C)C(=O)N[C@H](C(=O)N[C@@H](Cc1ccccc1)C(=O)NCC(=O)N[C@@H](CCCCN)C(=O)N[C@H](C(=O)O)C(C)C)C(C)C)C(C)C)C(C)C [FLGKVFKGASKVFGAVFGKV]	≥ 61.3	> 123	15.3 (≈ 32 µg/mL)	–	–
CC[C@H](C)[C@H](NC(=O)[C@@H](NC(=O)[C@H](CCCCN)NC(=O)[C@H](C)NC(=O)[C@H](CC(C)C)NC(=O)[C@H](CCCCN)NC(=O)[C@H](CCCCN)NC(=O)CN)[C@@H](C)O)C(=O)N[C@@H](C)C(=O)N[C@@H](CCCCN)C(=O)N[C@@H](CCC(=O)O)C(=O)N[C@H](C(=O)N[C@@H](C)C(=O)N[C@@H](CCCCN)C(=O)N[C@@H](CCC(N)=O)C(=O)NCC(=O)N[C@@H](C)C(=O)N[C@@H](CCCCN)C(=O)N[C@@H](Cc1ccccc1)C(=O)N[C@@H](C)C(=O)O)C(C)C [GKKLAKTIAKEVAKQGAKFA]	≥ 123	–	30.7 (≈ 64 µg/mL)	–	–
